Assay results reported in US20100160431A1, “Methods and Compositions for the Treatment of Viral Infections” (priority 2006, published 2010).

Experiments:
[1] = Release profile of amantadine and oseltamivir combination (USP II Paddle system, water); type: physicochemical
From the text: The cumulative fraction is the amount of drug substance released from the formulation matrix to the serum or gut environment (e.g., U.S. Pat. No. 4,839,177) or as measured with a USP II Paddle system using water as the dissolution medium.

[2] = in vivo; cited from earlier work
[3] = Time to steady state concentration with extended release amantadine or rimantadine; details: patient with influenza A; 100 mg or more once daily; formulated as in Example 5
[4] = cited from earlier work; for Human PK T½ / Tmax: humans

Compound | cum. fraction ([1]; Time 1) | cum. fraction ([1]; Time 2) | cum. fraction ([1]; Time 4) | cum. fraction ([1]; Time 8) | cum. fraction ([1]; Time 12) | cum. fraction ([1]; Time 16) | cum. fraction ([1]; Time 20) | cum. fraction ([1]; Time 24) | Dose Dependent Toxicity [2] | time to therapeutically effective steady state serum concentration [3] | T½ ([4]; head of Table 4) | Human PK T½ [4] | Tmax [4]
NC12CC3CC(CC(C3)C1)C2 [Amantadine, amantadine] | 0.2 | 0.3 | 0.4 | 0.5 | 0.6 | 0.7 | 0.8 | 0.9 |  |  |  |  | 
CC(N)C12CC3CC(CC(C3)C1)C2 (centres unmarked) [Rimantadine, rimantadine] |  |  |  |  |  |  |  |  | Insomnia | three |  |  | 
CCOC(=O)C1=C[C@@H](OC(CC)CC)[C@H](NC(C)=O)[C@@H](N)C1 [oseltamivir/TAMIFLU ®, oseltamivir] | 0.1 | 0.15 | 0.2 | 0.35 | 0.5 | 0.65 | 0.8 | 1 |  |  | T½ = 3 hrs | 3 h | 3 to 4 h
CC(=O)N[C@H]1[C@H]([C@H](O)[C@H](O)CO)OC(C(=O)O)=C[C@@H]1NC(=N)N [zanamivir/RELENZA ®, zanamivir] |  |  |  |  |  |  |  |  |  |  |  | 2.5 to 5.1 h | 1 to 2 h
